Among the data in patent publication US20240368135A1 (VERTEX PHARMACEUTICALS INCORPORATED, priority 2021, published 2024) are IC50 values, retold here.

This assay concerns the target human NaV 1.8 (Homo sapiens, UniProt Q9Y5Y9). In words: E-VIPR assay detecting and measuring NaV inhibition properties. It counts as cell-based. The note with it: HEK cells expressing truncated human NaV 1.8. Put shortly: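 HEK cells expressing truncated, fully active human NaV1.8, with KIR2.1 BacMam co-transduction, were loaded with CC2-DMPE/DiSBAC6(3) voltage-sensing dyes for 20 min at room temperature. Compounds were tested in 11-point 3-fold dilutions (300 nM top final), optionally with 25% human serum, under electrical stimulation with FRET read-out.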

The mark [1] stands for this setting: no human serum, read-out: IC50 in the E-VIPR Assay.

In general, IC50 refers to the concentration at which inhibition is half-maximal.

Like-named read-outs stand apart in the source and are kept apart here.

Sequence of human NaV 1.8 (Q9Y5Y9 126-399 limits assumed): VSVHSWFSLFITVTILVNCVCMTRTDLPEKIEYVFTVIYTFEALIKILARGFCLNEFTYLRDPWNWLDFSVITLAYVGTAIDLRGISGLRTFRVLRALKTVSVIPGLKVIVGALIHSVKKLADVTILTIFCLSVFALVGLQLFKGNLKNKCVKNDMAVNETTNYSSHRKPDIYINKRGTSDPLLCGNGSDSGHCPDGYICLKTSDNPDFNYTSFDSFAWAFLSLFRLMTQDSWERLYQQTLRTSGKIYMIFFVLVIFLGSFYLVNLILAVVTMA
Sequence of human NaV 1.8 (Q9Y5Y9 660-890 limits assumed): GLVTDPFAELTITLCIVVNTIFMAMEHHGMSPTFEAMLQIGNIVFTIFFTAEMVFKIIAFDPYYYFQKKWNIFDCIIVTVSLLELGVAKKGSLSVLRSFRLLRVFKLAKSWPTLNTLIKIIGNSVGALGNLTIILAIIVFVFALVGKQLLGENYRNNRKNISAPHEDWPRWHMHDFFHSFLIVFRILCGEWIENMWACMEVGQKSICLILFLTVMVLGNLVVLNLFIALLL
Sequence of human NaV 1.8 (Q9Y5Y9 1148-1722 limits assumed): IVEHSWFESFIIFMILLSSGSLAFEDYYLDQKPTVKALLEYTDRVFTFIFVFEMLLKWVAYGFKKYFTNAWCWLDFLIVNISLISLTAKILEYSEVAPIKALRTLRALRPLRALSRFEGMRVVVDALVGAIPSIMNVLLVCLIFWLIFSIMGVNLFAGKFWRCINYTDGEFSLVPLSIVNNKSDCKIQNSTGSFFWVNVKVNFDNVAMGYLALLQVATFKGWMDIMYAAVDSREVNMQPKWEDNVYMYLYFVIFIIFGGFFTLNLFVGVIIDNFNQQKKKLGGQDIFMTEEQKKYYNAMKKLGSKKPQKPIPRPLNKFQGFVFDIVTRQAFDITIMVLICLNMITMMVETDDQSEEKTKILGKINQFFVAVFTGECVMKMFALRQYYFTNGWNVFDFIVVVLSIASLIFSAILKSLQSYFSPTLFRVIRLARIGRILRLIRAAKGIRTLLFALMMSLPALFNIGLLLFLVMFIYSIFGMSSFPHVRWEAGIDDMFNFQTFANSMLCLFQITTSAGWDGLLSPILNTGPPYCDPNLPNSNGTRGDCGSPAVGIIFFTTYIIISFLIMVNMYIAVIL

As for `C[C@H]1[C@@H](c2ccc(F)c(F)c2OCCO)[C@H](C(=O)Nc2ccc(C(F)F)nc2)O[C@@]1(C)C(F)(F)F` [Compound 571, (2R,3S,4S,5R)-3-(3,4-difluoro-2-(2-hydroxyethoxy)phenyl)-N-(6-(difluoromethyl)pyridin-3-yl)-4,5-dimethyl-5-(trifluoromethyl)tetrahydrofuran-2-carboxamide], the half-maximal inhibitory concentration (IC50) under setting [1] was in the range of 10 to 100 nM.
The same measure, in the same setting: next, `Cc1c(F)ccc([C@@H]2[C@@H](C(=O)Nc3ccn(C)c(=O)c3)O[C@](C)(C(F)(F)F)[C@@H]2C)c1OC(F)F` (stereo in doubt) [Compound 99, rel-(2S,3R,4R,5S)-3-(2-(difluoromethoxy)-4-fluoro-3-methylphenyl)-4,5-dimethyl-N-(1-methyl-2-oxo-1,2-dihydropyridin-4-yl)-5-(trifluoromethyl)tetrahydrofuran-2-carboxamide]: ≥ 1000 nM; `COc1c([C@H]2[C@H](C(=O)NCC3CN(C)C(=O)CO3)O[C@@](C)(C(F)(F)F)[C@H]2C)ccc(F)c1F` (stereo partly drawn) [Compound 290, (2R,3S,4S,5R)-3-(3,4-difluoro-2-methoxyphenyl)-4,5-dimethyl-N-((4-methyl-5-oxomorpholin-2-yl)methyl)-5-(trifluoromethyl)tetrahydrofuran-2-carboxamide]: ≥ 1000 nM.
As for `C[C@H]1[C@@H](c2ccc(F)c(F)c2OCCN2CC(F)C2)[C@H](C(=O)Nc2ccc3nncn3c2)O[C@@]1(C)C(F)(F)F` [Compound 635], the IC50 under setting [1] lay within 10 to 100 nM.
As to `COc1c([C@H]2[C@H](C(=O)Nc3cc(C(O)CN(C)C)ncc3F)O[C@@](C)(C(F)(F)F)[C@H]2C)ccc(F)c1F` (single isomer, unassigned) [Compound 377], the half-maximal inhibitory concentration (IC50) under setting [1] was < 10 nM.
Still for that read-out and setting: under `COc1c([C@H]2[C@H](C(=O)Nc3ccnc(NC(=O)CN(C)C)c3)O[C@@](C)(C(F)(F)F)[C@H]2C)ccc(F)c1F` [Compound 472, (2R,3S,4S,5R)-3-(3,4-difluoro-2-methoxyphenyl)-N-(2-(2-(dimethylamino)acetamido)pyridin-4-yl)-4,5-dimethyl-5-(trifluoromethyl)tetrahydrofuran-2-carboxamide] stands 10 to 100 nM; under `COc1c([C@H]2[C@H](C(=O)Nc3cc(C(O)CO)ncc3C)O[C@@](C)(C(F)(F)F)[C@H]2C)ccc(F)c1F` (single isomer, unassigned) [Compound 205, rel-(2R*,3S*,4S*,5R*)-3-(3,4-difluoro-2-methoxyphenyl)-N-(2-(1,2-dihydroxyethyl)-5-methylpyridin-4-yl)-4,5-dimethyl-5-(trifluoromethyl)tetrahydrofuran-2-carboxamide], < 10 nM.
Regarding `COCC(c1ccc(NC(=O)[C@@H]2O[C@@](C)(C(F)(F)F)[C@@H](C)[C@H]2c2ccc(F)c(F)c2OC)cn1)N(C)C` (single isomer, unassigned) [Compound 426, rel-(2R*,3S*,4S*,5R*)-3-(3,4-difluoro-2-methoxyphenyl)-N-(6-(1-(dimethylamino)-2-methoxyethyl)pyridin-3-yl)-4,5-dimethyl-5-(trifluoromethyl)-tetrahydrofuran-2-carboxamide], under setting [1], the concentration for half-maximal inhibition (IC50) lay within 100 to 1000 nM.
Still for that read-out and setting: under `COc1c([C@H]2[C@H](C(=O)Nc3ccnc(O[C@@H]4COC[C@@H]4O)c3)O[C@@](C)(C(F)(F)F)[C@H]2C)ccc(F)c1F` (single isomer, unassigned) [Compound 239, rel-(2R*,3S*,4S*,5R*)-3-(3,4-difluoro-2-methoxyphenyl)-N-(2-(((3R,4S)-4-hydroxytetrahydrofuran-3-yl)oxy)pyridin-4-yl)-4,5-dimethyl-5-(trifluoromethyl)tetrahydrofuran-2-carboxamide] stands < 10 nM.
As for `COc1c([C@H]2[C@H](C(=O)Nc3ccnc(N4C(=O)CNC[C@H]4C)c3)O[C@@](C)(C(F)(F)F)[C@H]2C)ccc(F)c1F` [Compound 477, (2R,3S,4S,5R)-3-(3,4-difluoro-2-methoxyphenyl)-4,5-dimethyl-N-(2-((R)-2-methyl-6-oxopiperazin-1-yl)pyridin-4-yl)-5-(trifluoromethyl)tetrahydrofuran-2-carboxamide], under setting [1], the IC50 was in the range of 10 to 100 nM.
The same measure, in the same setting: next, `C[C@H]1[C@@H](c2ccc(F)c(F)c2OC(F)F)[C@H](C(=O)Nc2ccnc(C(O)CO)c2)O[C@@]1(C)C(F)(F)F` (single isomer, unassigned) [Compound 82]: < 10 nM; `COCCNCc1cc(NC(=O)C2OC(C)(C(F)(F)F)C(C)C2c2ccc(F)c(F)c2OC)ccn1` (stereo not shown) [Compound 59, 3-(3,4-difluoro-2-methoxy-phenyl)-N-[2-[(2-methoxyethylamino)methyl]-4-pyridyl]-4,5-dimethyl-5-(trifluoromethyl)tetrahydrofuran-2-carboxamide]: ≥ 1000 nM.
Regarding `CCS(=O)(=O)c1cc(NC(=O)C2OC(C)(C(F)(F)F)C(C)C2c2ccc(F)c(F)c2OC)ccn1` (single isomer, unassigned) [Compound 52, 3-(3,4-difluoro-2-methoxy-phenyl)-N-(2-ethylsulfonyl-4-pyridyl)-4,5-dimethyl-5-(trifluoromethyl)tetrahydrofuran-2-carboxamide], under setting [1], the IC50 was ≥ 1000 nM.
As to `C[C@H]1[C@@H](c2ccc(F)c(F)c2OC(F)F)[C@H](C(=O)Nc2ccn(C)c(=O)c2)O[C@@]1(C)C(F)(F)F` (single isomer, unassigned) [Compound 78], the IC50 under setting [1] was < 10 nM.
On the same count and under the same terms, under `COc1c([C@@H]2[C@@H](C(=O)Nc3ccc(C(F)F)nc3)O[C@](C)(C(F)(F)F)[C@@H]2C)ccc(F)c1C(F)F` (single isomer, unassigned) [Compound 164] stands ≥ 1000 nM; under `CC1C(c2ccc(F)c(F)c2OC2CC(O)C2)C(C(=O)Nc2cc(CO)ncc2F)OC1(C)C(F)(F)F` [Compound 657, (2R,3S,4S,5R)-3-(3,4-difluoro-2-((1S,3R)-3-hydroxycyclobutoxy)phenyl)-N-(5-fluoro-2-(hydroxymethyl)pyridin-4-yl)-4,5-dimethyl-5-(trifluoromethyl)tetrahydrofuran-2-carboxamide], ≥ 1000 nM.
Take `Cc1nn(C(N)=O)cc1NC(=O)[C@@H]1O[C@@](C)(C(F)(F)F)[C@@H](C)[C@H]1c1ccc(F)c(F)c1OCCN1CCOCC1` [Compound 593, 4-((2R,3S,4S,5R)-3-(3,4-difluoro-2-(2-morpholinoethoxy)phenyl)-4,5-dimethyl-5-(trifluoromethyl)tetrahydrofuran-2-carboxamido)-3-methyl-1H-pyrazole-1-carboxamide]: the half-maximal inhibitory concentration (IC50) under setting [1] was in the range of 10 to 100 nM.
The same measure, in the same setting: under `Cc1nn(C(F)F)cc1NC(=O)[C@@H]1O[C@@](C)(C(F)(F)F)[C@@H](C)[C@H]1c1ccc(F)c(F)c1CCO` [Compound 677, (2R,3S,4S,5R)-3-(3,4-difluoro-2-(2-hydroxyethyl)phenyl)-N-(1-(difluoromethyl)-3-methyl-1H-pyrazol-4-yl)-4,5-dimethyl-5-(trifluoromethyl)tetrahydrofuran-2-carboxamide] stands 10 to 100 nM.
For the compound `COc1c([C@H]2[C@H](C(=O)Nc3ccnc(C(O)CF)c3)O[C@@](C)(C(F)(F)F)[C@H]2C)ccc(F)c1F` (single isomer, unassigned) [Compound 253, rel-(2R*,3S*,4S*,5R*)-3-(3,4-difluoro-2-methoxyphenyl)-N-(2-(2-fluoro-1-hydroxyethyl)pyridin-4-yl)-4,5-dimethyl-5-(trifluoromethyl)tetrahydrofuran-2-carboxamide], the half-maximal inhibitory concentration (IC50) under setting [1] was < 10 nM.
The same measure, in the same setting: next, `COc1c([C@H]2[C@H](C(=O)N3Cc4ccncc4C3)O[C@@](C)(C(F)(F)F)[C@H]2C)ccc(F)c1F` [Compound 323, ((2R,3S,4S,5R)-3-(3,4-difluoro-2-methoxyphenyl)-4,5-dimethyl-5-(trifluoromethyl)-tetrahydrofuran-2-yl)(1,3-dihydro-2H-pyrrolo[3,4-c]pyridin-2-yl)methanone]: ≥ 1000 nM; `Cc1nn(C(F)F)cc1NC(=O)[C@@H]1O[C@@](C)(C(F)(F)F)[C@@H](C)[C@H]1c1ccc(F)c(F)c1OCCO` [Compound 536, (2R,3S,4S,5R)-3-(3,4-difluoro-2-(2-hydroxyethoxy)phenyl)-N-(1-(difluoromethyl)-3-methyl-1H-pyrazol-4-yl)-4,5-dimethyl-5-(trifluoromethyl)tetrahydrofuran-2-carboxamide]: < 10 nM; `CCOc1c(C2C(C(=O)Nc3cc(S(C)(=N)=O)c[n+](C)c3)OC(C)(C(F)(F)F)C2C)ccc(F)c1F` (stereo not shown) [Compound 114, 3-(2-ethoxy-3,4-difluoro-phenyl)-4,5-dimethyl-N-[1-methyl-5-(methylsulfonimidoyl)pyridin-1-ium-3-yl]-5-(trifluoromethyl)tetrahydrofuran-2-carboxamide]: 100 to 1000 nM.
Still for that read-out and setting: next, `COc1c([C@H]2[C@H](C(=O)Nc3cn(C[C@H](O)CO)nc3C)O[C@@](C)(C(F)(F)F)[C@H]2C)ccc(F)c1F` [Compound 332, (2R,3S,4S,5R)-3-(3,4-difluoro-2-methoxy-phenyl)-N-[1-[(2S)-2,3-dihydroxypropyl]-3-methyl-pyrazol-4-yl]-4,5-dimethyl-5-(trifluoromethyl)tetrahydrofuran-2-carboxamide]: < 10 nM.
As to `COc1c([C@H]2C[C@@](C)(C(F)(F)F)O[C@@H]2C(=O)Nc2cn(S(C)(=O)=O)nc2C)ccc(F)c1F` (stereo in doubt) [Compound 683, rel-(2S,3R,5S)-3-(3,4-difluoro-2-methoxyphenyl)-5-methyl-N-(3-methyl-1-(methylsulfonyl)-1H-pyrazol-4-yl)-5-(trifluoromethyl)tetrahydrofuran-2-carboxamide], the IC50 (in the presence of human serum (compound numbers followed by *), read-out: IC50 in the E-VIPR Assay, performed in the presence of human serum) is ≥ 1000 nM.
Turning to `COCCOc1c([C@H]2[C@H](C(=O)Nc3cnn(CC(C)(C)O)c3)O[C@@](C)(C(F)(F)F)[C@H]2C)ccc(F)c1F` [Compound 583, (2R,3S,4S,5R)-3-(3,4-difluoro-2-(2-methoxyethoxy)phenyl)-N-(1-(2-hydroxy-2-methylpropyl)-1H-pyrazol-4-yl)-4,5-dimethyl-5-(trifluoromethyl)tetrahydrofuran-2-carboxamide], under setting [1], the half-inhibitory concentration (IC50) lay in the range of 100 to 1000 nM.
